In the NIST ThermoML archive (doi:10.1016/j.jct.2011.02.008):

Assay: xn = mol fraction of the nth substance listed
Conditions: Liquid, Vibrating tube method

COC(=O)c1ccccc1 [methyl benzoate] + CCCCCCO
mass density [kg/m3]
Conditions	x1 = 0.1004	x1 = 0.2007	x1 = 0.3007	x1 = 0.4013	x1 = 0.5005	x1 = 0.6009	x1 = 0.7	x1 = 0.8008	x1 = 0.9009
278.15 K, 100 kPa	856.6	883.8	911.4	938.8	966	993.4	1020.3	1047.7	1075.1
278.15 K, 1000 kPa	857.1	884.4	911.9	939.4	966.5	993.9	1020.8	1048.2	1075.5
278.15 K, 5000 kPa	859.7	886.9	914.4	941.8	968.9	996.3	1023.2	1050.6	1077.9
278.15 K, 10000 kPa	862.7	889.9	917.3	944.8	971.9	999.2	1026	1053.4	1080.7
278.15 K, 15000 kPa	865.6	892.8	920.3	947.6	974.7	1002	1028.9	1056.3	1083.5
278.15 K, 20000 kPa	868.5	895.6	923.1	950.4	977.5	1004.7	1031.6	1059	1086.2
278.15 K, 25000 kPa	871.2	898.3	925.8	953.1	980.2	1007.4	1034.2	1061.6	1088.7
278.15 K, 30000 kPa	873.8	901	928.4	955.8	982.8	1010	1036.8	1064.2	1091.3
278.15 K, 35000 kPa	876.5	903.6	931	958.3	985.4	1012.6	1039.4	1066.7	1093.8
278.15 K, 40000 kPa	879	906.1	933.6	960.9	987.9	1015.1	1041.9	1069.2	1096.3
278.15 K, 45000 kPa	881.5	908.6	936	963.3	990.4	1017.6	1044.3	1071.7	1098.7
278.15 K, 50000 kPa	883.9	911.1	938.5	965.8	992.8	1020	1046.7	1074	1101.1
278.15 K, 55000 kPa	886.3	913.4	940.8	968.1	995.2	1022.3	1049.1	1076.4	1103.5
278.15 K, 60000 kPa	888.4	915.6	943	970.3	997.3	1024.5	1051.4	1078.7	1105.6
288.15 K, 100 kPa	849.1	876	903.2	930.4	957.3	984.4	1011.1	1038.4	1065.5
288.15 K, 1000 kPa	849.7	876.6	903.8	931	957.9	985	1011.7	1039	1066
288.15 K, 5000 kPa	852.3	879.2	906.4	933.6	960.4	987.5	1014.2	1041.4	1068.5
288.15 K, 10000 kPa	855.5	882.4	909.5	936.7	963.5	990.6	1017.2	1044.5	1071.5
288.15 K, 15000 kPa	858.5	885.5	912.6	939.7	966.5	993.6	1020.2	1047.4	1074.4
288.15 K, 20000 kPa	861.5	888.4	915.5	942.6	969.4	996.4	1023	1050.2	1077.2
288.15 K, 25000 kPa	864.3	891.2	918.3	945.4	972.2	999.3	1025.8	1053	1080
288.15 K, 30000 kPa	867.1	894	921.1	948.2	975	1002	1028.5	1055.7	1082.6
288.15 K, 35000 kPa	869.8	896.7	923.8	950.9	977.7	1004.6	1031.2	1058.3	1085.2
288.15 K, 40000 kPa	872.4	899.3	926.4	953.5	980.2	1007.2	1033.8	1060.9	1087.8
288.15 K, 45000 kPa	875	901.8	929	956	982.8	1009.8	1036.3	1063.4	1090.3
288.15 K, 50000 kPa	877.5	904.4	931.5	958.5	985.3	1012.3	1038.8	1065.9	1092.8
288.15 K, 55000 kPa	879.9	906.8	933.9	961	987.8	1014.7	1041.3	1068.3	1095.2
288.15 K, 60000 kPa	882.3	909.2	936.2	963.2	990	1017	1043.7	1070.6	1097.5
298.15 K, 100 kPa	841.5	868.2	895.1	922	948.6	975.5	1002	1029.1	1056
298.15 K, 1000 kPa	842.2	868.8	895.7	922.6	949.2	976.1	1002.6	1029.7	1056.6
298.15 K, 5000 kPa	844.9	871.6	898.4	925.3	951.9	978.8	1005.3	1032.3	1059.2
298.15 K, 10000 kPa	848.3	874.9	901.7	928.5	955.1	982	1008.4	1035.4	1062.3
298.15 K, 15000 kPa	851.5	878	904.9	931.7	958.3	985.1	1011.5	1038.5	1065.3
298.15 K, 20000 kPa	854.5	881.1	907.9	934.7	961.3	988.1	1014.5	1041.5	1068.3
298.15 K, 25000 kPa	857.5	884.1	910.9	937.7	964.2	991	1017.4	1044.4	1071.2
298.15 K, 30000 kPa	860.4	886.9	913.8	940.5	967.1	993.9	1020.3	1047.2	1074
298.15 K, 35000 kPa	863.2	889.7	916.6	943.3	969.9	996.6	1023	1049.9	1076.7
298.15 K, 40000 kPa	865.9	892.5	919.3	946.1	972.6	999.3	1025.7	1052.6	1079.4
298.15 K, 45000 kPa	868.6	895.1	921.9	948.7	975.3	1002	1028.4	1055.3	1082
298.15 K, 50000 kPa	871.1	897.7	924.5	951.3	977.8	1004.6	1031	1057.9	1084.6
298.15 K, 55000 kPa	873.7	900.2	927.1	953.9	980.4	1007.2	1033.5	1060.4	1087.1
298.15 K, 60000 kPa	876	902.5	929.4	956.2	982.7	1009.5	1035.9	1062.7	1089
308.15 K, 100 kPa	834	860.4	886.9	913.6	939.9	966.6	993	1019.9	1046.6
308.15 K, 1000 kPa	834.6	861.1	887.5	914.2	940.6	967.2	993.7	1020.5	1047.2
308.15 K, 5000 kPa	837.5	864	890.4	917.1	943.4	970	996.4	1023.2	1049.9
308.15 K, 10000 kPa	841	867.4	893.8	920.5	946.8	973.4	999.7	1026.5	1053.1
308.15 K, 15000 kPa	844.3	870.7	897.1	923.7	950	976.6	1003	1029.7	1056.4
308.15 K, 20000 kPa	847.5	873.9	900.3	926.9	953.2	979.8	1006.1	1032.8	1059.4
308.15 K, 25000 kPa	850.6	877	903.4	930	956.3	982.9	1009.1	1035.8	1062.5
308.15 K, 30000 kPa	853.6	879.9	906.4	933	959.3	985.9	1012.1	1038.8	1065.3
308.15 K, 35000 kPa	856.5	882.8	909.3	935.9	962.1	988.8	1014.9	1041.7	1068.2
308.15 K, 40000 kPa	859.3	885.7	912.1	938.7	965	991.6	1017.7	1044.5	1071
308.15 K, 45000 kPa	862.1	888.4	914.9	941.5	967.8	994.3	1020.5	1047.2	1073.7
308.15 K, 50000 kPa	864.7	891.1	917.6	944.1	970.5	997.1	1023.2	1049.9	1076.4
308.15 K, 55000 kPa	867.4	893.7	920.2	946.8	973.1	999.7	1025.8	1052.5	1079.1
308.15 K, 60000 kPa	869.7	896.1	922.6	949.4	975.5	1002.1	1028.2	1055	1081.5
318.15 K, 100 kPa	826.4	852.5	878.7	905.1	931.2	957.7	983.9	1010.7	1037.2
318.15 K, 1000 kPa	827.1	853.1	879.4	905.8	931.9	958.4	984.6	1011.3	1037.8
318.15 K, 5000 kPa	830.1	856.2	882.4	908.7	934.8	961.3	987.5	1014.2	1040.7
318.15 K, 10000 kPa	833.8	859.7	886	912.3	938.4	964.9	991	1017.6	1044.1
318.15 K, 15000 kPa	837.2	863.2	889.4	915.8	941.8	968.2	994.3	1021	1047.4
318.15 K, 20000 kPa	840.6	866.6	892.8	919.1	945.2	971.5	997.6	1024.3	1050.6
318.15 K, 25000 kPa	843.8	869.8	896	922.3	948.4	974.6	1000.8	1027.4	1053.8
